# Results: patent US6525001B1, “Substituted pyrimidine and pyridine herbicides” (Mid-American Commercialization Corporation, priority 1997, dated 2003)
# What was measured:
# Test in all cases: Test B pre-/postemergence
# Assay type in all cases: in vivo
# Design in all cases: key: 0 is no effect; 10 is complete control
# [1] = test system: purple nutsedge (Cyperus rotundus)
# How it was run: (§1)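 Scored visually 0 (none) to 10 (complete control) against untreated plants after twelve to sixteen greenhouse days. Test chemicals, formulated in surfactant-containing non-phytotoxic solvent, applied to soil after planting and, separately, onto 1- to 4-leaf (2–18 cm) plants.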
# [2] = test system: crabgrass (Digitaria sanguinalis)
# How it was run: as §1
# [3] = test system: blackgrass (Alopecurus myosuroides)
# How it was run: as §1
# [4] = test system: momingglory (Ipomoea hederacea)
# How it was run: as §1
# [5] = test system: pigweed (Amaranthus retroflexus)
# How it was run: as §1
# [6] = test system: sugar beet (Beta vulgaris)
# How it was run: as §1
# [7] = test system: wild oat (Avena fatua)
# How it was run: as §1
# [8] = test system: velvetleaf (Abutilon theophrasti)
# How it was run: as §1
# [9] = test system: wheat (Triticum aestivum)
# How it was run: as §1
# [10] = test system: giant foxtail (Setaria faberii)
# How it was run: as §1
# [11] = test system: cocklebur (Xanthium strumarium)
# How it was run: as §1
# [12] = test system: soybean (Glycine max)
# How it was run: as §1
# [13] = test system: broadleaf signalgrass (Brachiaria decumbens)
# How it was run: as §1
# [14] = test system: corn (Zea mays)
# How it was run: as §1
structure (smiles),measurement,setting,value
Cc1cnc(-c2ccc(C(F)(F)F)cc2)nc1Cn1ccc(C(F)(F)C(F)(F)F)n1 [Compound 14],"Plant response rating, Nutsedge","[1]; Rate 62 g/ha, Postemergence",0
same,Nutsedge plant response rating,"[1]; Rate 62 g/ha, Preemergence",0
same,"Plant response rating, Nutsedge","[1]; Rate 125 g/ha, Postemergence",0
same,Nutsedge plant response rating,"[1]; Rate 125 g/ha, Preemergence",0
same,"Plant response rating, Nutsedge","[1]; Rate 250 g/ha, Postemergence",0
same,"Plant response rating, Nutsedge","[1]; Rate 250 g/ha, Preemergence",0
same,"Plant response rating, Nutsedge","[1]; Rate 500 g/ha, Postemergence",0
same,"Plant response rating, Nutsedge","[1]; Rate 500 g/ha, Preemergence",0
same,"Plant response rating, Crabgrass","[2]; Rate 62 g/ha, Postemergence",2
same,Crabgrass plant response rating,"[2]; Rate 62 g/ha, Preemergence",0
same,"Plant response rating, Crabgrass","[2]; Rate 125 g/ha, Postemergence",2
same,Crabgrass plant response rating,"[2]; Rate 125 g/ha, Preemergence",1
same,"Plant response rating, Crabgrass","[2]; Rate 250 g/ha, Postemergence",2
same,"Plant response rating, Crabgrass","[2]; Rate 250 g/ha, Preemergence",7
same,"Plant response rating, Crabgrass","[2]; Rate 500 g/ha, Postemergence",4
same,"Plant response rating, Crabgrass","[2]; Rate 500 g/ha, Preemergence",8
same,"Plant response rating, Blackgrass","[3]; Rate 62 g/ha, Postemergence",1
same,Blackgrass plant response rating,"[3]; Rate 62 g/ha, Preemergence",0
same,"Plant response rating, Blackgrass","[3]; Rate 125 g/ha, Postemergence",2
same,Blackgrass plant response rating,"[3]; Rate 125 g/ha, Preemergence",0
same,"Plant response rating, Blackgrass","[3]; Rate 250 g/ha, Postemergence",3
same,"Plant response rating, Blackgrass","[3]; Rate 250 g/ha, Preemergence",0
same,"Plant response rating, Blackgrass","[3]; Rate 500 g/ha, Postemergence",3
same,"Plant response rating, Blackgrass","[3]; Rate 500 g/ha, Preemergence",3
same,"Plant response rating, Morningglory","[4]; Rate 62 g/ha, Postemergence",2
same,Morningglory plant response rating,"[4]; Rate 62 g/ha, Preemergence",0
same,"Plant response rating, Morningglory","[4]; Rate 125 g/ha, Postemergence",6
same,Morningglory plant response rating,"[4]; Rate 125 g/ha, Preemergence",0
same,"Plant response rating, Morningglory","[4]; Rate 250 g/ha, Postemergence",6
same,"Plant response rating, Morningglory","[4]; Rate 250 g/ha, Preemergence",2
same,"Plant response rating, Morningglory","[4]; Rate 500 g/ha, Postemergence",8
same,"Plant response rating, Morningglory","[4]; Rate 500 g/ha, Preemergence",8
same,"Plant response rating, Redroot pigweed","[5]; Rate 62 g/ha, Postemergence",8
same,Redroot pigweed plant response rating,"[5]; Rate 62 g/ha, Preemergence",0
same,"Plant response rating, Redroot pigweed","[5]; Rate 125 g/ha, Postemergence",9
same,Redroot pigweed plant response rating,"[5]; Rate 125 g/ha, Preemergence",2
same,"Plant response rating, Redroot pigweed","[5]; Rate 250 g/ha, Postemergence",9
same,"Plant response rating, Redroot pigweed","[5]; Rate 250 g/ha, Preemergence",4
same,"Plant response rating, Redroot pigweed","[5]; Rate 500 g/ha, Postemergence",9
same,"Plant response rating, Redroot pigweed","[5]; Rate 500 g/ha, Preemergence",4
same,"Plant response rating, Sugarbeets","[6]; Rate 62 g/ha, Postemergence",7
same,Sugarbeets plant response rating,"[6]; Rate 62 g/ha, Preemergence",3
same,"Plant response rating, Sugarbeets","[6]; Rate 125 g/ha, Postemergence",8
same,Sugarbeets plant response rating,"[6]; Rate 125 g/ha, Preemergence",5
same,"Plant response rating, Sugarbeets","[6]; Rate 250 g/ha, Postemergence",8
same,"Plant response rating, Sugarbeets","[6]; Rate 250 g/ha, Preemergence",6
same,"Plant response rating, Sugarbeets","[6]; Rate 500 g/ha, Postemergence",9
same,"Plant response rating, Sugarbeets","[6]; Rate 500 g/ha, Preemergence",9
same,"Plant response rating, Wild oats","[7]; Rate 62 g/ha, Postemergence",0
same,Wild oats plant response rating,"[7]; Rate 62 g/ha, Preemergence",0
same,"Plant response rating, Wild oats","[7]; Rate 125 g/ha, Postemergence",1
same,Wild oats plant response rating,"[7]; Rate 125 g/ha, Preemergence",0
same,"Plant response rating, Wild oats","[7]; Rate 250 g/ha, Postemergence",3
same,"Plant response rating, Wild oats","[7]; Rate 250 g/ha, Preemergence",0
same,"Plant response rating, Wild oats","[7]; Rate 500 g/ha, Postemergence",3
same,"Plant response rating, Wild oats","[7]; Rate 500 g/ha, Preemergence",2
same,"Plant response rating, Velvetleaf","[8]; Rate 62 g/ha, Postemergence",3
same,Velvetleaf plant response rating,"[8]; Rate 62 g/ha, Preemergence",0
same,"Plant response rating, Velvetleaf","[8]; Rate 125 g/ha, Postemergence",4
same,Velvetleaf plant response rating,"[8]; Rate 125 g/ha, Preemergence",0
same,"Plant response rating, Velvetleaf","[8]; Rate 250 g/ha, Postemergence",4
same,"Plant response rating, Velvetleaf","[8]; Rate 250 g/ha, Preemergence",1
same,"Plant response rating, Velvetleaf","[8]; Rate 500 g/ha, Postemergence",4
same,"Plant response rating, Velvetleaf","[8]; Rate 500 g/ha, Preemergence",7
same,"Plant response rating, Wheat","[9]; Rate 62 g/ha, Postemergence",0
same,Wheat plant response rating,"[9]; Rate 62 g/ha, Preemergence",0
same,"Plant response rating, Wheat","[9]; Rate 125 g/ha, Postemergence",0
same,Wheat plant response rating,"[9]; Rate 125 g/ha, Preemergence",0
same,"Plant response rating, Wheat","[9]; Rate 250 g/ha, Postemergence",2
same,"Plant response rating, Wheat","[9]; Rate 250 g/ha, Preemergence",0
same,"Plant response rating, Wheat","[9]; Rate 500 g/ha, Postemergence",3
same,"Plant response rating, Wheat","[9]; Rate 500 g/ha, Preemergence",0
same,"Plant response rating, Giant foxtail","[10]; Rate 62 g/ha, Postemergence",1
same,Giant foxtail plant response rating,"[10]; Rate 62 g/ha, Preemergence",0
same,"Plant response rating, Giant foxtail","[10]; Rate 125 g/ha, Postemergence",1
same,Giant foxtail plant response rating,"[10]; Rate 125 g/ha, Preemergence",4
same,"Plant response rating, Giant foxtail","[10]; Rate 250 g/ha, Postemergence",1
same,"Plant response rating, Giant foxtail","[10]; Rate 250 g/ha, Preemergence",7
same,"Plant response rating, Giant foxtail","[10]; Rate 500 g/ha, Postemergence",3
same,"Plant response rating, Giant foxtail","[10]; Rate 500 g/ha, Preemergence",9
same,"Plant response rating, Cocklebur","[11]; Rate 62 g/ha, Postemergence",4
same,Cocklebur plant response rating,"[11]; Rate 62 g/ha, Preemergence",0
same,"Plant response rating, Cocklebur","[11]; Rate 125 g/ha, Postemergence",7
same,"Plant response rating, Cocklebur","[11]; Rate 250 g/ha, Postemergence",7
same,"Plant response rating, Cocklebur","[11]; Rate 250 g/ha, Preemergence",0
same,"Plant response rating, Cocklebur","[11]; Rate 500 g/ha, Postemergence",7
same,"Plant response rating, Soybean","[12]; Rate 62 g/ha, Postemergence",4
same,Soybean plant response rating,"[12]; Rate 62 g/ha, Preemergence",0
same,"Plant response rating, Soybean","[12]; Rate 125 g/ha, Postemergence",4
same,Soybean plant response rating,"[12]; Rate 125 g/ha, Preemergence",0
same,"Plant response rating, Soybean","[12]; Rate 250 g/ha, Postemergence",5
same,"Plant response rating, Soybean","[12]; Rate 250 g/ha, Preemergence",0
same,"Plant response rating, Soybean","[12]; Rate 500 g/ha, Postemergence",5
same,"Plant response rating, Soybean","[12]; Rate 500 g/ha, Preemergence",1
same,"Plant response rating, B. signalgrass","[13]; Rate 62 g/ha, Postemergence",2
same,B. signalgrass plant response rating,"[13]; Rate 62 g/ha, Preemergence",0
same,"Plant response rating, B. signalgrass","[13]; Rate 125 g/ha, Postemergence",2
same,B. signalgrass plant response rating,"[13]; Rate 125 g/ha, Preemergence",0
same,"Plant response rating, B. signalgrass","[13]; Rate 250 g/ha, Postemergence",3
same,"Plant response rating, B. signalgrass","[13]; Rate 250 g/ha, Preemergence",0
same,"Plant response rating, B. signalgrass","[13]; Rate 500 g/ha, Postemergence",4
same,"Plant response rating, B. signalgrass","[13]; Rate 500 g/ha, Preemergence",5
same,"Plant response rating, Corn","[14]; Rate 62 g/ha, Postemergence",2
same,Corn plant response rating,"[14]; Rate 62 g/ha, Preemergence",0
same,"Plant response rating, Corn","[14]; Rate 125 g/ha, Postemergence",2
same,Corn plant response rating,"[14]; Rate 125 g/ha, Preemergence",0
same,"Plant response rating, Corn","[14]; Rate 250 g/ha, Postemergence",3
same,"Plant response rating, Corn","[14]; Rate 250 g/ha, Preemergence",0
same,"Plant response rating, Corn","[14]; Rate 500 g/ha, Postemergence",3
same,"Plant response rating, Corn","[14]; Rate 500 g/ha, Preemergence",3
